Test results published in article PMC7051184, “C9orf72 arginine-rich dipeptide repeat proteins disrupt karyopherin-mediated nuclear import” (eLife, 2020).
One block for each molecule: values may come before it. Where a SMILES comes first, the peptide text is derived from it. Where no end group is shown, it is not given here.

Experiments:
[1] = biological target: T1, importin β-mediated nuclear import of Rango (Homo sapiens, UniProt Q14974); experiment: Permeabilized cell nuclear import assay, Rango, HeLa; assay type: cell-based
[2] = test system: nuclear transport of NLS-NES shuttle proteins; conditions: synthetic peptide added to HeLa cells in the culture media; ref Vanneste et al., 2019; cited from earlier work
Excerpt: (§1) Additional studies have since investigated mechanisms by which individual DPRs may disrupt the nuclear transport apparatus. […] PR20 was previously shown by STE ...

[3] = test system: Nup54 and 98 FG-domain polymers; conditions: ref Shi et al., 2017; cited from earlier work
Excerpt: The rate of passive transport through the NPC is governed by the FG-Nup barrier ([Mohr et al., 2009]; [Timney et al., 2016]; [Frey et al., 2018]), in addition to local concentrations of importin β and RanGTP ([Ma et al., 2012]; [Kapinos et al., 2017]). R-DPR/FG-domain interactions are predicted based on the propensity of arginines to undergo cation-pi interactions with aromatic phenylalanine rings (reviewed by [Gallivan and Dougherty, 1999]; [Banani et al., 2017]). Indeed, previous interactome studies predicted R-DPR interactions with FG-Nups including Nup54, 62, 98, 153, and 214 ([Lin et al., ...

[4] = test system: proteasome; conditions: ref Gupta et al., 2017; cited from earlier work
Excerpt: Throughout this study, we observed marked differences in the behavior of GR and PR. […] Based on their divergent molecular properties, the differing behavior of GR and PR is not surprising. On one hand, bot ...

[5] = test system: nuclear import of NLS-BSA; conditions: permeabilized HeLa cells; ref Shi et al., 2017; cited from earlier work
Excerpt: as §1

[6] = biological target: T1, importin β-mediated nuclear import of Rango; experiment: Permeabilized cell nuclear import assay, Rango, mouse primary cortical neurons; assay type: cell-based; conditions: importin β small molecule inhibitor control
Excerpt: All animal procedures were approved by the Johns Hopkins Animal Care and Use Committee. Timed pregnant C57BL/6J females (Jackson Laboratory, Bar Harbor, ME) were sacrificed by cervical dislocation at E16, cortex dissociated, and cells plated at 50,000/well on poly-D-lysine/laminin-coated, optical glass-bottom 96-well plates. Growth medium consisted of Neurobasal supplemented with B27, Glutamax, and penicillin/streptomycin (Gibco/ThermoFisher). At 5–7 days in vitro, neurons were rinsed in prewarmed PBS and permeabilized for 4 min. at 37° in a hypotonic solution containing […] Tris-HCl pH 7.5 (to cause osmotic swelling) and 50–150 mg/ml BSA (for molecular crowding/mechanical support). Following permeabilization, cells were placed on ice and rinsed 2 × 5 min in transport buffer (TRB, 20 mM HEPES, 110 mM KOAc, 2 mM Mg(OAc)2, 5 mM NaOAc, 0.5 mM EGTA, 250 mM sucrose, pH 7.3, with protease inhibitor cocktail). All rinse and assay buffers were supplemented with 50 mg/mL BSA. The optimal hypotonic buffer and BSA concentration varied by batch, and was optimized prior to each set of assays for ability to permeabilize the majority of plasma membranes while maintaining nuclear exclusion of a 70 kD fluorescent dextran (ThermoFisher).
Concentrated whole cell lysates were prepared from HEK293T cells (ATCC, mycoplasma negative and validated by STR profiling), grown in 150 mm dishes and sonicated on ice in 1X TRB in the presence of protease inhibitor cocktail (Roche). The lysates were clarified (15 min, 14000 g, 4C), snap frozen in liquid nitrogen, and stored in single use aliquots at −80C. Total HEK cell RNA was extracted using miRNEasy kits according to the manufacturers’ protocol, with DNase digestion (Qiagen). RNA concentration was measured by Nanodrop (ThermoFisher), and all 260/280 ratios were verified to be > 2.0. Energy regeneration (ER) mix consisted of 100 µM ATP, 100 µM GTP, 4 mM creatine phosphate, and 20 U/mL creatine kinase (Roche).
(§2) Reaction mixes consisting of 2.5 mg/ml lysate, ER, fluorescent cargo (200 nM Rango and YFP-M9-CFP, 500 nM GST-GFP-NLS), Hoechst, DPRs, RNA, or inhibitors (100 µM importazole (IPZ, Millipore Sigma); 0.8 mg/mL wheat germ agglutinin (WGA, Millipore Sigma) were assembled on ice during cell permeabilization. DPRs or inhibitors were allowed to equilibrate in cell lysate for at least 30 min prior to initiation of transport. Every plate included: (1) Cargo alone: fluorescent cargo, but no ER or lysate, (2) Untreated controls: fluorescent cargo, ER, and lysate, and (3) Inhibitor: fluorescent cargo, ER, lysate, and IPZ (Rango and GST-GFP-NLS reactions) or WGA (YFP-M9-CFP). Preassembled transport reactions were then transferred onto permeabilized cells via multichannel pipette, and allowed to proceed at room temperature for 2 hr (Rango, YFP-M9-CFP) or 4 hr (GST-GFP-NLS). Cells were fixed in 4% paraformaldehyde/PBS, rinsed 2x with PBS, and transferred to 50% glycerol/PBS for immediate imaging.
For a subset of neuron transport assays, transport was monitored live via time lapse imaging every 5 min for 30 min. In a subset of HeLa assays, transport reactions were centrifuged before use at 14,000g × 15 min to separate soluble and insoluble fractions. In another variation, the transport lysate + DPR and ER mix was allowed to preincubate on the permeabilized HeLa cells for 1 hour prior to initiation of transport, rinsed 1x with TRB, and transport initiated with fresh lysate, cargo, and ER.
Multiple non-overlapping fields per well (4 for time-lapse imaging, 9-16 for fixed imaging), were captured at 40x on an ImageXpress Micro XLS high-content microscope (Molecular Devices, San Jose, CA), and the ratio of nuclear to cytoplasmic fluorescence intensity was calculated using the MetaXpress automated translocation-enhanced module. Raw data were filtered to exclude autofluorescence and the mean N/C ratio from wells without ER or cell lysate was subtracted from all values.

[7] = biological target: T1, importin β-mediated nuclear import of Rango; experiment: Fractionated Rango transport assay (aggregates present or supernatant only), HeLa; assay type: cell-based; conditions: with AF647-labeled importin β
Procedure: A single cell-derived clone of HeLa cells (ATCC, Manassas, VA; mycoplasma negative and validated by STR profiling) were maintained in OptiMEM (Gibco/ThermoFisher) with 4% FBS and plated on uncoated optical glass-bottom 96 well plates, at appropriate densities to reach 70–90% confluence on the day of the transport assay. To permeabilize, cells were rinsed for 2 min in ice-cold PBS, and permeabilized on ice for 10 min in 15–30 µg/mL digitonin (Calbiochem, San Diego, CA) in permeabilization buffer (PRB, 20 mM HEPES, 110 mM KOAc, 5 mM Mg(OAc)2, 0.5 mM EGTA, 250 mM sucrose, pH 7.5, with protease inhibitor cocktail). Following permeabilization, cells were placed on ice and rinsed 3 × 5 min in transport buffer (TRB, 20 mM HEPES, 110 mM KOAc, 2 mM Mg(OAc)2, 5 mM NaOAc, 0.5 mM EGTA, 250 mM sucrose, pH 7.3, with protease inhibitor cocktail). The optimal digitonin concentration varied by cell density and passage number, and was optimized prior to each set of assays for the ability to permeabilize the majority of plasma membranes while maintaining nuclear exclusion of a 70 kD fluorescent dextran (ThermoFisher).
as §2
For a subset of neuron transport assays, transport was monitored live via time lapse imaging every 5 min for 30 min. […]
Multiple non-overlapping fields per well (4 for time-lapse imaging, 9-16 for fixed imaging), were captured at 40x on an ImageXpress Micro XLS high-content microscope (Molecular Devices, San Jose, CA), and the ratio of nuclear to cytoplasmic fluorescence intensity was calculated using the MetaXpress automated translocation-enhanced module. […] Resulting N/C ratios were expressed as % untreated, to permit comparisons across biological replicates.

T1 sequence (Q14974 whole entry): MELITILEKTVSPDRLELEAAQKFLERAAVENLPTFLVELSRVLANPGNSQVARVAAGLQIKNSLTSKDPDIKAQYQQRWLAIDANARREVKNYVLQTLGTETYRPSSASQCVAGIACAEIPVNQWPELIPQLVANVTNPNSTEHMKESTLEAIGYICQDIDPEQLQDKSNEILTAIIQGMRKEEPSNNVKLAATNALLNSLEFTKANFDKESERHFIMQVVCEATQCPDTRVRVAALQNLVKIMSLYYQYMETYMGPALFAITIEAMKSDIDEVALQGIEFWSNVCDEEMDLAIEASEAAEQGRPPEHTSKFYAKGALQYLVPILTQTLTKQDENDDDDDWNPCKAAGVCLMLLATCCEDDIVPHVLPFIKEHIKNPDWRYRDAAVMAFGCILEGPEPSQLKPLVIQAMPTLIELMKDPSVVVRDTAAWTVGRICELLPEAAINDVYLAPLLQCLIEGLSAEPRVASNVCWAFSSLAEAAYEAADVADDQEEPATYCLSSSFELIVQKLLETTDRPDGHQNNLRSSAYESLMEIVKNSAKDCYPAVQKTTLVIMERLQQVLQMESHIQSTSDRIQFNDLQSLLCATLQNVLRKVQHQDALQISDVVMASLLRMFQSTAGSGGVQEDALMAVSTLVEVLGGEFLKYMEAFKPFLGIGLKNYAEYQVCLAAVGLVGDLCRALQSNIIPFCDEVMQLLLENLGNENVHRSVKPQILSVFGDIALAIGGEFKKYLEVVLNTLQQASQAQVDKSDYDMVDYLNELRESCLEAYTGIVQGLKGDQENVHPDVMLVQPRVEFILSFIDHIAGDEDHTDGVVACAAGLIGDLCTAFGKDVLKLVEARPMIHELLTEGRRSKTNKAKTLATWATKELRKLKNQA

Molecule: OCCCCCCO [1,6-hexanediol]
Reversal of mild nuclear import inhibition ([1]; 25 µM PR10): neither 1,6-hexanediol nor exogenous importin β could reverse mild nuclear import inhibition
Effect on Rango import at baseline ([1]; no DPR): caused dose-dependent inhibition at baseline

Molecule: N=C(N)NCCC[C@H](NC(=O)CNC(=O)[C@H](CCCNC(=N)N)NC(=O)CNC(=O)[C@H](CCCNC(=N)N)NC(=O)CNC(=O)[C@H](CCCNC(=N)N)NC(=O)CNC(=O)[C@H](CCCNC(=N)N)NC(=O)CNC(=O)[C@H](CCCNC(=N)N)NC(=O)CNC(=O)[C@H](CCCNC(=N)N)NC(=O)CNC(=O)[C@H](CCCNC(=N)N)NC(=O)CNC(=O)[C@H](CCCNC(=N)N)NC(=O)CNC(=O)[C@H](CCCNC(=N)N)NC(=O)CNC(=O)[C@H](CCCNC(=N)N)NC(=O)CNC(=O)[C@H](CCCNC(=N)N)NC(=O)CNC(=O)[C@H](CCCNC(=N)N)NC(=O)CNC(=O)[C@H](CCCNC(=N)N)NC(=O)CNC(=O)[C@H](CCCNC(=N)N)NC(=O)CNC(=O)[C@H](CCCNC(=N)N)NC(=O)CNC(=O)[C@H](CCCNC(=N)N)NC(=O)CNC(=O)[C@H](CCCNC(=N)N)NC(=O)CNC(=O)[C@H](CCCNC(=N)N)NC(=O)CNC(=O)[C@H](CCCNC(=N)N)NC(=O)CN)C(=O)O [GR20]
Effect on nuclear transport of fluorescent NLS-NES shuttle proteins [2]: unable to impede nuclear transport

Molecule: N=C(N)NCCC[C@H](NC(=O)[C@@H]1CCCN1C(=O)[C@H](CCCNC(=N)N)NC(=O)[C@@H]1CCCN1C(=O)[C@H](CCCNC(=N)N)NC(=O)[C@@H]1CCCN1C(=O)[C@H](CCCNC(=N)N)NC(=O)[C@@H]1CCCN1C(=O)[C@H](CCCNC(=N)N)NC(=O)[C@@H]1CCCN1C(=O)[C@H](CCCNC(=N)N)NC(=O)[C@@H]1CCCN1C(=O)[C@H](CCCNC(=N)N)NC(=O)[C@@H]1CCCN1C(=O)[C@H](CCCNC(=N)N)NC(=O)[C@@H]1CCCN1C(=O)[C@H](CCCNC(=N)N)NC(=O)[C@@H]1CCCN1C(=O)[C@H](CCCNC(=N)N)NC(=O)[C@@H]1CCCN1C(=O)[C@H](CCCNC(=N)N)NC(=O)[C@@H]1CCCN1C(=O)[C@H](CCCNC(=N)N)NC(=O)[C@@H]1CCCN1C(=O)[C@H](CCCNC(=N)N)NC(=O)[C@@H]1CCCN1C(=O)[C@H](CCCNC(=N)N)NC(=O)[C@@H]1CCCN1C(=O)[C@H](CCCNC(=N)N)NC(=O)[C@@H]1CCCN1C(=O)[C@H](CCCNC(=N)N)NC(=O)[C@@H]1CCCN1C(=O)[C@H](CCCNC(=N)N)NC(=O)[C@@H]1CCCN1C(=O)[C@H](CCCNC(=N)N)NC(=O)[C@@H]1CCCN1C(=O)[C@H](CCCNC(=N)N)NC(=O)[C@@H]1CCCN1C(=O)[C@H](CCCNC(=N)N)NC(=O)[C@@H]1CCCN1)C(=O)O [PR20] (H-PRPRPRPRPRPRPRPRPRPRPRPRPRPRPRPRPRPRPRPR-OH; N-terminus and C-terminus assumed)
Binding to FG-domain polymers [3]: bind and stabilize Nup54 and 98 FG-domain polymers
Inhibition of proteosomal degradation [4]: shown to inhibit proteosomal degradation
Effect on nuclear import of NLS-BSA [5]: impeded nuclear import of NLS-BSA
Effect on nuclear transport of fluorescent NLS-NES shuttle proteins [2]: unable to impede nuclear transport

Effect on Rango import in permeabilized neurons [6]: can be inhibited
Molecule: CC(Nc1nc(N2CCCC2)nc2ccccc12)c1ccccc1 (stereo not shown) [importazole, Importazole, reference compound]

Location of AF488-labeled DPR in fractionated transport reactions (confocal) [7]: fully sedimented into the pellet
Molecule: AF488-GR10: GR10 labeled with Alexa Fluor 488 C5-maleimide (GRGRGRGRGRGRGRGRGRGRKC(Alexa Fluor 488 C5‑maleimide))

Molecule: AF488-PR10: PR10 labeled with Alexa Fluor 488 C5-maleimide (PRPRPRPRPRPRPRPRPRPRKC(Alexa Fluor 488 C5‑maleimide))
Location of AF488-labeled DPR in fractionated transport reactions (confocal) [7]: remained in the supernatant and was present at the nuclear envelope
